Assay results from ChEMBL document CHEMBL5143730, “Structure-Based Design, Optimization, and Development of [18F]LU13: A Novel Radioligand for Cannabinoid Receptor Type 2 Imaging in the Brain with PET” (J Med Chem, 2022).

Columns and labels:
Cannabinoid receptor 2 [1] = molecular target: T1, Cannabinoid receptor 2 (Homo sapiens, UniProt P34972); test: Displacement of [3H]-WIN55212-2 from human CB2 receptor transfected in CHO cells membrane incubated for 90 mins; assay type: cell membranes
Cannabinoid receptor 1 = Cannabinoid receptor 1 (Homo sapiens, UniProt P21554); test: Displacement of [3H]-SR141716A from recombinant human CB1 receptor expressed in CHO cells membrane incubated for 90 mins; assay type: cell membranes
Cannabinoid receptor 1, sequence (P21554 whole entry): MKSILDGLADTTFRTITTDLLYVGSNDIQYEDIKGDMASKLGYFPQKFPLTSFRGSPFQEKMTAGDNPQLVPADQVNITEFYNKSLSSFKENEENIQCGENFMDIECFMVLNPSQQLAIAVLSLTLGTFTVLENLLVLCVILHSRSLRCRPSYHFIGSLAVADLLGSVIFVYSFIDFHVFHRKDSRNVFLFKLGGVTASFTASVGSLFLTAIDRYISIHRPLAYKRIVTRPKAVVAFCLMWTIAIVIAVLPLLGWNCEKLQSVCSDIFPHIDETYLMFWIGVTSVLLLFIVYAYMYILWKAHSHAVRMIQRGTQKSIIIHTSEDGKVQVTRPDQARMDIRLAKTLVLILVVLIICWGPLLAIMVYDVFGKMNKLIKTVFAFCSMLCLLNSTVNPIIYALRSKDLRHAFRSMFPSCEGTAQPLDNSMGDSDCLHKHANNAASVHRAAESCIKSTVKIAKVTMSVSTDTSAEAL

Cannabinoid receptor 2 [2] = molecular target: T1, Cannabinoid receptor 2; test: Displacement of [3H]-WIN55212-2 from human CB2 receptor transfected in CHO-K1 cell membrane incubated for 90 mins by Liquid scintillation counter analysis; assay type: cell membranes
Homo sapiens [3] = species on record: Homo sapiens; test: Selectivity ratio of Ki for displacement of [3H]-SR141716A from human CB1 receptor to Ki for displacement of [3H]-WIN55212-2 from human CB2 receptor
Cannabinoid receptor 2 [4] = molecular target: T2, Cannabinoid receptor 2 (Rattus norvegicus, UniProt Q9QZN9); test: Displacement of [18F]-LU13 from rat spleen CB2 receptor incubated for 90 mins by competitive radioligand binding assay; assay type: tissue-based
T2 sequence (Q9QZN9 whole entry): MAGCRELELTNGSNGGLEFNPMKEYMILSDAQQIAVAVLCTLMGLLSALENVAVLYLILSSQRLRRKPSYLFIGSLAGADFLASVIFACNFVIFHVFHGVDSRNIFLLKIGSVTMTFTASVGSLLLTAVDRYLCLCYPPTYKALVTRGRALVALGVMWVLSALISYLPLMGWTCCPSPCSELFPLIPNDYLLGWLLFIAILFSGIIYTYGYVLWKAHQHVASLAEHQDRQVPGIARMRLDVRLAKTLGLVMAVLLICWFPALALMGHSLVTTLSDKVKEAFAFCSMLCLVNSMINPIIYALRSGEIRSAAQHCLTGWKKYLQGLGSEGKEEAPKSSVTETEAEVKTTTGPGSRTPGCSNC

Cannabinoid receptor 2 [5] = molecular target: T1, Cannabinoid receptor 2; test: Displacement of [18F]-LU13 from human CB2 receptor transfected in CHO cells membrane homogenate incubated for 90 mins by competitive radioligand binding assay; assay type: cell membranes
Cannabinoid receptor 2 [6] = molecular target: T1, Cannabinoid receptor 2; test: Inhibition of human CB2 receptor assessed as inhibition constant; assay type: functional
Homo sapiens [7] = species on record: Homo sapiens; test: Selectivity ratio of Ki for human CB1 receptor to Ki for human CB2 receptor
[8] = Drug uptake in iv dosed Wistar rat brain cerebellum overexpressing human CB2 receptor (D80N) assessed as time to peak radioactivity measured after 26 mins of post infection by PET imaging analysis; assay type: ADME, organism-based; conditions: in vivo
[9] = Metabolic stability in CD-1 mouse brain assessed as parent compound remaining measured after 30 mins by radio-HPLC analysis; assay type: ADME, tissue-based; conditions: read-out: Stability
[10] = Drug uptake in iv dosed Wistar rat brain contralateral region overexpressing human CB2 receptor (D80N) assessed as time to peak radioactivity measured after 26 mins of post injection by PET imaging analysis; assay type: ADME, organism-based; conditions: in vivo
[11] = MRT in iv dosed Wistar rat brain contralateral region overexpressing human CB2 receptor (D80N) by PET imaging analysis; assay type: ADME, organism-based; conditions: in vivo
[12] = Drug uptake in iv dosed Wistar rat brain cerebellum overexpressing human CB2 receptor (D80N) assessed as TAC peak standardized uptake of compound by PET imaging analysis; assay type: ADME, organism-based; conditions: in vivo
[13] = Metabolic stability in CD-1 mouse plasma assessed as parent compound remaining measured after 30 mins by radio-HPLC analysis; assay type: ADME, cell-free; conditions: read-out: Stability
[14] = Drug uptake in iv dosed Wistar rat brain striatum overexpressing human CB2 receptor (D80N) assessed as time to peak radioactivity measured after 26 mins of post injection by PET imaging analysis; assay type: ADME, organism-based; conditions: in vivo
[15] = MRT in iv dosed Wistar rat brain cerebellum overexpressing human CB2 receptor (D80N) by PET imaging analysis; assay type: ADME, organism-based; conditions: in vivo
[16] = Metabolic stability in CD-1 mouse spleen assessed as parent compound remaining measured after 30 mins by radio-HPLC analysis; assay type: ADME, tissue-based; conditions: read-out: Stability
[17] = Drug uptake in iv dosed Wistar rat brain striatum overexpressing human CB2 receptor (D80N) assessed as TAC peak standardized uptake of compound by PET imaging analysis; assay type: ADME, organism-based; conditions: in vivo
[18] = Drug uptake in iv dosed Wistar rat brain contralateral region overexpressing human CB2 receptor (D80N) assessed as TAC peak standardized uptake of compound by PET imaging analysis; assay type: ADME, organism-based; conditions: in vivo
[19] = tested as the 18F-labelled form

T1 sequence (P34972 whole entry): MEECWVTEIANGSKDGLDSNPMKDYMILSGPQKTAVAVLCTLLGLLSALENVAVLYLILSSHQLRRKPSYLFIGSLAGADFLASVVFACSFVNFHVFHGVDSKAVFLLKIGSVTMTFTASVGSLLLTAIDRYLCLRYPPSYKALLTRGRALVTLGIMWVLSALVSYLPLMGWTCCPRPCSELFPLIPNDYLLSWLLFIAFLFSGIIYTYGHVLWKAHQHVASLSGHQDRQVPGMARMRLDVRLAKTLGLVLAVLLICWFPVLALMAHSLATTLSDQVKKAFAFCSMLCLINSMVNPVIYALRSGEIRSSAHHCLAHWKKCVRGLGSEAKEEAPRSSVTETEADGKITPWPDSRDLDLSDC

Row | SMILES | Ki (Cannabinoid receptor 2 [1]) [µM] | Ki (Cannabinoid receptor 1) [nM] | also measured
1 | O=C(Nc1ccncc1)c1cc2cccnc2n(CCCCF)c1=O | > 10 | > 1000 | 
2 | C[C@H]1CC[C@@H](NC(=O)c2cc3cccnc3n(CCCF)c2=O)CC1 |  | 115 | 
3 | COc1cccc2c(=O)c(C(=O)NC34CC5CC(CC(C5)C3)C4)cn(CCOCCC[18F])c12 |  |  | Ki (Cannabinoid receptor 2 [2]): 0.9 nM
4 | COc1cccc2c(=O)c(C(=O)NC34CC5CC(CC(C5)C3)C4)cn(CCOCCCF)c12 |  |  | Ratio Ki (Homo sapiens [3]; [19]): > 10000
5 | C[C@H]1CC[C@@H](NC(=O)c2cc3cc(-c4ccco4)cnc3n(Cc3ccccc3F)c2=O)CC1 | > 10 | 65 | Ratio Ki (Homo sapiens [3]): > 153
6 | C[C@H]1CC[C@@H](NC(=O)c2cc3cc(-c4ccco4)cnc3n(CCCF)c2=O)CC1 | > 10 | 28 | 
7 | O=C(NC12CC3CC(CC(C3)C1)C2)c1cc2cccnc2n(CCCCF)c1=O | > 1 | 0.6 | IC50 (Cannabinoid receptor 2 [4]): 0.22 nM; IC50 (Cannabinoid receptor 2 [5]): 1.17 nM; Ratio Ki (Homo sapiens [3]): > 1000
8 | CC1CCC(NC(=O)c2cc3cc(Br)cnc3n(CCCCF)c2=O)CC1 (mixture of isomers) | > 10 | 4.8 | 
9 | [2H]C([2H])([18F])C([2H])([2H])C([2H])([2H])OC(=O)C(CC)(CC)NC(=O)c1ccc(N2CC(OC)C2)c(OC[C@H]2C[C@@H]2CO)n1 |  |  | Ki (Cannabinoid receptor 2 [6]): 0.6 nM
10 | O=C(Nc1ccccc1)c1cc2cccnc2n(CCCCF)c1=O | > 10 | 2200 | 
11 | C[C@H]1CC[C@H](NC(=O)c2cc3cc(-c4ccco4)cnc3n(Cc3ccccc3F)c2=O)CC1 |  | > 10000 | 
12 | C[C@H]1CC[C@H](NC(=O)c2cc3cc(-c4ccco4)cnc3n(CCCCF)c2=O)CC1 |  | 49 | 
13 | C[C@H]1CC[C@@H](NC(=O)c2cc3cc(-c4ccco4)cnc3n(Cc3cccc(F)c3)c2=O)CC1 | > 10 | 2.9 | Ratio Ki (Homo sapiens [3]): > 1000
14 | C[C@H]1CC[C@@H](NC(=O)c2cc3cccnc3n(CCCCF)c2=O)CC1 | > 1 | 6 | Ratio Ki (Homo sapiens [3]): > 167
15 | C[C@H]1CC[C@@H](NC(=O)c2cc3cc(-c4ccco4)cnc3n(CCCCF)c2=O)CC1 | > 10 | 3.3 | Ratio Ki (Homo sapiens [3]): > 303
16 | CCC(CC)(NC(=O)c1ccc(N2CC(OC)C2)c(OC[C@H]2C[C@@H]2CO)n1)C(=O)OCCCF |  |  | Ratio Ki (Homo sapiens [7]; tested as the 18F, 2H-labelled form): > 10000
17 | O=C(NC12CC3CC(CC(C3)C1)C2)c1cc2cccnc2n(Cc2ccc(F)cc2)c1=O | > 1 | 1.5 | 

Row | SMILES | Ki (Cannabinoid receptor 2 [1]) [µM] | Ki (Cannabinoid receptor 1) [nM] | also measured
18 | O=C(NC12CC3CC(CC(C3)C1)C2)c1cc2cccnc2n(CCOCCF)c1=O | > 1 | 3.9 | 
19 | O=C(Nc1ccc(F)nc1)c1cc2cccnc2n(CCCCF)c1=O | > 10 | > 1000 | 
20 | C[C@H]1CC[C@H](NC(=O)c2cc3cc(-c4ccco4)cnc3n(CCCF)c2=O)CC1 |  | 6800 | 
21 | C[C@H]1CC[C@H](NC(=O)c2cc3cc(-c4ccco4)cnc3n(Cc3ccc(F)cc3)c2=O)CC1 |  | 86 | 
22 | O=C(Nc1cccnc1)c1cc2cccnc2n(CCCCF)c1=O | > 10 | > 1000 | 
23 | O=C(Nc1ccc(F)cc1)c1cc2cccnc2n(CCCCF)c1=O | > 10 | 3900 | 
24 | C[C@H]1CC[C@H](NC(=O)c2cc3cc(-c4ccco4)cnc3n(Cc3cccc(F)c3)c2=O)CC1 |  | 5000 | 
25 | O=C(NCc1ccc(F)cc1)c1cc2cccnc2n(CCCCF)c1=O | > 10 | 1100 | 
26 | CCCCOc1c(OC)ccc2cc(C(=O)NC3CCCCC3)c(=O)[nH]c12 |  |  | Ratio Ki (Homo sapiens [7]; tested as the 11C-labelled form): 100
27 | C[C@H]1CC[C@@H](NC(=O)c2cc3cccnc3n(CCOCCF)c2=O)CC1 | > 10 | 13 | Ratio Ki (Homo sapiens [3]): > 714
28 | Cc1s/c(=N\C(=O)C2C(C)(C)C2(C)C)n(CCCCF)c1C |  |  | Ratio Ki (Homo sapiens [3]; [19]): 1000
29 | C[C@H]1CC[C@@H](NC(=O)c2cc3cc(-c4ccco4)cnc3n(Cc3ccc(F)cc3)c2=O)CC1 | 0.915 | 5 | Ratio Ki (Homo sapiens [3]): > 183
30 | [2H]C([2H])([18F])C([2H])([2H])C([2H])([2H])C([2H])([2H])n1c(=O)c(C(=O)NC23CC4CC(CC(C4)C2)C3)cc2cccnc21 |  |  | Drug uptake [8]: 5.4 min; remaining at 0.5 h [9]: 85%; Drug uptake [10]: 6.1 min; MRT [11]: 23 min; Drug uptake [12]: 1.8 SUV.min; remaining at 0.5 h [13]: 23%; Drug uptake [14]: 26 min; MRT [15]: 23 min; remaining at 0.5 h [16]: 95%; Drug uptake [17]: 3.6 SUV.min; Drug uptake [18]: 1.7 SUV.min
31 | Cc1s/c(=N\C(=O)C2C(C)(C)C2(C)C)n(CCCC[18F])c1C | 0.0004 |  | 
32 | C[C@H]1CC[C@H](NC(=O)c2cc3cccnc3n(CCOCCF)c2=O)CC1 |  | 780 | 
33 | C[C@H]1CC[C@H](NC(=O)c2cc3cccnc3n(CCCF)c2=O)CC1 |  | 4600 | 
34 | CC1CCC(NC(=O)c2cc3cc(Br)cnc3n(Cc3ccc(F)cc3)c2=O)CC1 (mixture of isomers) | > 0.155 | 1.7 | Ratio Ki (Homo sapiens [3]): 91
